# Experimental data from PubChem BioAssay AID1195 (EPA DSSTox, 2008).
# Tested on: human maximum recommended daily dose, FDA database
# Test: DSSTox (FDAMDD) FDA Maximum (Recommended) Daily Dose Database
# Conditions: active compounds read low
# Outline: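 MRDD values come from clinical trials with daily oral dosing, usually for 3–12 months, for the average adult, in mg/day converted to mg/kg-bw/day assuming 60 kg. Antineoplastic mg/m2 doses are divided by 37. Activity score maps log10(1/MRDD mmol) onto 1–100.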
# [1] = TherapeuticCategory: antihypertensive
# [2] = TherapeuticCategory: antiarrhythmic
# [3] = TherapeuticCategory: antibacterial
# [4] = TherapeuticCategory: antiulcerative
# [5] = TherapeuticCategory: analgesic, anti inflammatory
smiles,measurement,setting,value
CC(CCc1ccccc1)NC(C)C(O)c1ccc(O)cc1 (configuration not stated),maximum recommended daily dose (mmol/kg-bw/day),TherapeuticCategory: vasodilator,0.00267
CC(C)(CO)[C@@H](O)C(=O)NCCC(=O)O,maximum recommended daily dose (mmol/kg-bw/day),TherapeuticCategory: vitamin,0.000534
CC(=O)N[C@@H](CS)C(=O)O,maximum recommended daily dose (mmol/kg-bw/day),"TherapeuticCategory: mucolytic, corneal vulnerary",0.0613
OCCN1CCN(CCCN2c3ccccc3Sc3ccc(C(F)(F)F)cc32)CC1,maximum recommended daily dose (mmol/kg-bw/day),TherapeuticCategory: antispsychotic,0.000761
CCOC(=O)[C@H](CCc1ccccc1)N[C@@H](C)C(=O)N1CCC[C@H]1C(=O)O,maximum recommended daily dose (mmol/kg-bw/day),[1],0.00177
CCN(CC)CCNC(=O)c1ccc(N)cc1,maximum recommended daily dose (mmol/kg-bw/day),[2],0.212
CN1Cc2c(N)cccc2C(c2ccccc2)C1 (configuration not stated),maximum recommended daily dose (mmol/kg-bw/day),TherapeuticCategory: antidepressant,0.014
CCOC(=O)C1=C[C@]2(CC)CCCN3CCc4c(n1c1ccccc41)[C@@H]32,maximum recommended daily dose (mmol/kg-bw/day),TherapeuticCategory: cerebral vasodilator,0.00143
CN1CCCN=C1COC(=O)C(O)(c1ccccc1)C1CCCCC1 (configuration not stated),maximum recommended daily dose (mmol/kg-bw/day),TherapeuticCategory: anticholinergic,0.00145
CN1CCCC(n2nc(Cc3ccc(Cl)cc3)c3ccccc3c2=O)CC1 (configuration not stated),maximum recommended daily dose (mmol/kg-bw/day),"TherapeuticCategory: antiallergic, antiasthmatic, antihistaminic",0.000348
NC[C@@H]1O[C@H](O[C@H]2[C@@H](O)[C@H](O[C@@H]3[C@@H](O)[C@H](N)C[C@H](N)[C@H]3O[C@H]3O[C@H](CN)[C@@H](O)[C@H](O)[C@H]3N)O[C@@H]2CO)[C@H](N)[C@@H](O)[C@@H]1O,maximum recommended daily dose (mmol/kg-bw/day),[3],0.163
CN(Cc1cc(Br)cc(Br)c1N)C1CCCCC1,maximum recommended daily dose (mmol/kg-bw/day),"TherapeuticCategory: expectorant, mucolytic",0.00213
COC1=CC(=O)C[C@@H](C)[C@]12Oc1c(Cl)c(OC)cc(OC)c1C2=O,maximum recommended daily dose (mmol/kg-bw/day),TherapeuticCategory: antifungal,0.0354
CCOC(=O)Nc1ccc2c(c1)N(C(=O)CCN1CCOCC1)c1ccccc1S2,maximum recommended daily dose (mmol/kg-bw/day),[2],0.0351
CS(=O)(=O)OCCCCOS(C)(=O)=O,maximum recommended daily dose (mmol/kg-bw/day),TherapeuticCategory: antineoplastic,0.00054
CC(=O)[C@H]1CC[C@H]2[C@@H]3C=CC4=CC(=O)CC[C@@]4(C)[C@@H]3CC[C@]12C,maximum recommended daily dose (mmol/kg-bw/day),TherapeuticCategory: progestogen,0.0016
CC(CN1c2ccccc2Sc2ccc(S(=O)(=O)N(C)C)cc21)N(C)C (configuration not stated),maximum recommended daily dose (mmol/kg-bw/day),TherapeuticCategory: antimigraine,0.0034
CCCCc1nc(Cl)c(CO)n1Cc1ccc(-c2ccccc2-c2nn[nH]n2)cc1,maximum recommended daily dose (mmol/kg-bw/day),[1],0.00395
COCC(=O)O[C@]1(CCN(C)CCCc2nc3ccccc3[nH]2)CCc2cc(F)ccc2[C@@H]1C(C)C,maximum recommended daily dose (mmol/kg-bw/day),"TherapeuticCategory: antihypertensive, Ca channel blocker",0.00337
CC(=O)Oc1ccccc1C(=O)O,maximum recommended daily dose (mmol/kg-bw/day),"TherapeuticCategory: analgesic, antipyretic, anti inflammatory",0.37
COc1ccc2c(c1OC)CN1CCc3cc4c(cc3C1C2)OCO4 (configuration not stated),maximum recommended daily dose (mmol/kg-bw/day),TherapeuticCategory: Ca channel blocker,0.0981
NC[C@H]1O[C@H](O[C@H]2[C@H](O)[C@@H](O[C@H]3O[C@H](CO)[C@@H](O)[C@H](N)[C@H]3O)[C@H](N)C[C@@H]2N)[C@H](N)C[C@@H]1O,maximum recommended daily dose (mmol/kg-bw/day),[3],0.0193
CN(C)CCOC1=Cc2ccccc2Sc2ccc(Cl)cc21,maximum recommended daily dose (mmol/kg-bw/day),TherapeuticCategory: antipsychotic,0.0226
CC1(C)[C@@H](OC(=O)CCC(=O)O)CC[C@]2(C)[C@H]3C(=O)C=C4[C@@H]5C[C@@](C)(C(=O)O)CC[C@]5(C)CC[C@@]4(C)[C@]3(C)CC[C@@H]12,maximum recommended daily dose (mmol/kg-bw/day),[4],0.00876
OCCN1C[C@H](O)[C@@H](O)[C@H](O)[C@H]1CO,maximum recommended daily dose (mmol/kg-bw/day),TherapeuticCategory: antidiabetic,0.0241
CC(C)=CCOc1ccc(/C=C/C(=O)c2ccc(OCC=C(C)C)cc2OCC(=O)O)cc1,maximum recommended daily dose (mmol/kg-bw/day),[4],0.0111
CC(=O)NCCOC(=O)C(Oc1cccc(C(F)(F)F)c1)c1ccc(Cl)cc1 (configuration not stated),maximum recommended daily dose (mmol/kg-bw/day),"TherapeuticCategory: antihyperlipoproteinemic, uricosuric",0.0402
O=C(O)c1ccccc1Nc1cccc(C(F)(F)F)c1,maximum recommended daily dose (mmol/kg-bw/day),[5],0.0356
Cc1noc(NS(=O)(=O)c2ccc(N)cc2)c1C,maximum recommended daily dose (mmol/kg-bw/day),[3],0.25
O=C(O)c1cccnc1Nc1cccc(C(F)(F)F)c1,maximum recommended daily dose (mmol/kg-bw/day),TherapeuticCategory: anti inflammatory,0.0443
N[C@@H](Cc1ccc(O)c(O)c1)C(=O)O,maximum recommended daily dose (mmol/kg-bw/day),TherapeuticCategory: antiparkinsonian,0.674
CCN(CC)C(C)CN1c2ccccc2Sc2ccccc21 (configuration not stated),maximum recommended daily dose (mmol/kg-bw/day),"TherapeuticCategory: antiparkinsonian, anticholinergic",0.032
CC(=O)Nc1ccc(O)cc1,maximum recommended daily dose (mmol/kg-bw/day),"TherapeuticCategory: analgesic, antipyretic",0.331
CC(C)CC(N(C)C)C1(c2ccc(Cl)cc2)CCC1 (configuration not stated),maximum recommended daily dose (mmol/kg-bw/day),TherapeuticCategory: anorexic,0.000893
CC1=NS(=O)(=O)c2cc(Cl)ccc2N1,maximum recommended daily dose (mmol/kg-bw/day),[1],0.0347
CCn1ccc(NS(=O)(=O)c2ccc(N)cc2)nc1=O,maximum recommended daily dose (mmol/kg-bw/day),[3],0.0567
Cc1cc(CC(=O)O)n(C)c1C(=O)c1ccc(Cl)cc1,maximum recommended daily dose (mmol/kg-bw/day),[5],0.0343
